Here are results for 2 compounds from ChEMBL document CHEMBL1141729, “Two new cytotoxic compounds from Tapirira guianensis” (J Nat Prod, 1998).

Assay type in all cases: functional, cell-based
One assay deals with Col2. The experiment in a line: Cytotoxicity against human Col2 cells.
Assay [1] can be described thus: Cytotoxicity against vinblastine-resistant human KBV1 cells. Conditions: KB-V1.
Another assay has as its system KB. The experiment in a line: Cytotoxicity against human KB cells.
Another assay deals with LNCaP. The experiment in a line: Cytotoxicity against human LNCAP cells.
The next assay concerns Lu1. The experiment in a line: Cytotoxicity against human Lu1 cells.
A short description of assay [2]: Cytotoxicity against human BC1 cells.
The nature of assay [3]: Cytotoxicity against vinblastine-resistant human KBV1 cells in presence of vinblastine. Conditions: KB-V1.

Structures are written as SMILES. In brackets after ≈: the same amount, converted by molar mass.

As a reminder, the IC50 is the point on the concentration scale where inhibition reaches its midpoint.

On to `CCCCCC/C=C\CCCCCCCCCc1cc(O)ccc1O`, for which the IC50 with Col2 is 0.8 µg/mL (≈ 2.31 µM); in assay [1] it was 0.6 µg/mL (≈ 1.73 µM); in the assay with KB, 0.5 µg/mL (≈ 1.44 µM); in the assay on LNCaP, 0.2 µg/mL (≈ 0.577 µM); in the assay with Lu1 it was 0.3 µg/mL (≈ 0.866 µM); in assay [2], 1.3 µg/mL (≈ 3.75 µM). For the same compound, the IC50 in assay [3] is 0.5 µg/mL.
For the compound `CCCCCC/C=C\CCCCCCCCC[C@]1(O)C=CC(=O)[C@@H](O)C1`, the IC50 in the assay on Col2 was determined as 1.8 µg/mL (≈ 4.94 µM); in assay [1], 4.2 µg/mL (≈ 11.5 µM); with KB, 1.5 µg/mL (≈ 4.11 µM); in the assay with LNCaP it was 0.3 µg/mL (≈ 0.823 µM); in the assay on Lu1, 4.4 µg/mL (≈ 12.1 µM); in assay [2], 4.3 µg/mL (≈ 11.8 µM). Moreover, the IC50 in assay [3] came to 4.1 µg/mL.
